Data on two molecules can be found in patent US6599914B2, “Inhibition of cytokine generation” (Schering Corporation, priority 2001, dated 2003).

“Also recorded” adds a separate entry of the source.

One test relates to human basophils. The following applies: ionomycin 500 ng/ml; 0.1, 1.0 and 10 μM desloratadine; 4 hours.
Test [1] relates to seasonal allergic rhinitis patients. Kind of test: Double-blinded, randomized clinical trials in seasonal allergic rhinitis patients.
Experimental: Efficacy endpoints in all the studies were Total Symptom Score, Total Nasal Symptom Score, Total Non-nasal Symptom Score, and Health Quality of Life (HQOL) analysis in efficacy trials. […] This parameter measures the total symptom relief by the patient after 24 hours before taking the next day dose.
The test system of test [2] is human basophilic leukocyte cells. The following applies: in vitro; cited from earlier work.
For another test, the system named is IL-4 mRNA. The following applies: desloratadine 10 μM.
The next test has as its system endothelial cells. The following applies: in vitro; cited from earlier work.
The test system of the next test is basophilic cells. The following applies: relatively high concentrations; cited from earlier work.

Experimental for IL-4 mRNA: Cultures for the analysis of IL-4 mRNA were performed in 1.5 ml polypropylene microcentrifuge tubes, as described above. […] Total RNA was isolated using the RNAzol protocol (Tel-test Inc., Friendswood, Tex.) after 2 hours incubation, which is the time that IL-4 message expression peaks using IgE-dependent activation (Schroeder, et al., J. Immunol.1997, Vol.158:5448-5454). Following isopropanol precipitation, the RNA was washed with 70% ethanol and dried under vacuum. Subsequently, the RNA was resuspended in 25 μl of diethipyrocarbonate (DEPC)-treated water and stored at −80° C. Reverse Transcription (RT) and polymerase chain reaction (PCR) were performed with serial dilutions of RNA as previously detailed (MacGlashan, et al., J. Immunol, 1994; Vol. 152:3006-3016; Schroeder, at al., J. Immunol., 1997, Vol. 158: 5448-5454) using the GeneAmp RNA PCR kit (Perkin-Elmer Cetus, Norwalk, Conn.). PCR products were visualized in 3% agrose gels using ethidium bromide staining.
Total RNA was isolated after 2 h and used for dilutional RT-PCR analysis to compare message expression for IL-4 and the housekeeping gene, hypoxanthine phosphoribosyl transferase (HPRT) (panel a).
For these experiments, we used a dilutional RT-PCR protocol to provide a semi-quantitative analysis.
Experimental for human basophils: Mixed leukocyte suspensions containing basophils were prepared either using double-Percoll density centrifugation as described (Schroeder, et al., J. Immunol.,1994, Vol. 153: 1808, or by a combination of countercurrent elutriation and Percoll density centrifugation protocols (MacGlashan, et al., J. Immunol.,1994, Vol. 153:3006-3016). The percentages of basophils obtained using these protocols typically ranged between 5-50% and 10-30%, respectively, and were determined by counting Alcian blue positive and negative stained cells on a Spiers-Levy chamber (Gilbert and Ornstein, 1975). For some experiments, the basophils were additionally purified to >99.9% using a negative-selection protocol (Miltenyi Corp., Auburn, Calif.). […] For the analysis of IL-4 mRNA expression, cells in C-IMDM were cultured in autoclaved (RNase-free) 1.5 ml microcentrifuge tubes (see below), since this allowed for a more precise way to quantitatively isolate mRNA without the need for transferring cells from culture wells before extraction. […] Histamine, LTC4, and IL-4 were all measured in aliquots of culture supernatant taken at 4 hours. […] LTC4 was measured by an in-house RIA (MacGlashan, et al., J. Immunol. 1986, Vol.136:2231-2239). IL-4 protein was measured by a commercial ELISA (Biosource International). […]

As for `Clc1ccc2c(c1)CCc1cccnc1C2=C1CCNCC1` [desloratadine], in the test on human basophils, the “effect on histamine secretion induced by ionomycin” value is given as “lack of an effect; also recorded: unaffected”. Moreover, the “reduction of nasal symptoms versus placebo” value in test [1] (5 mg) is “significantly (p<0.01) more effective than placebo”. Besides, in test [1] (5 mg once daily), the total symptom scores result was “significantly reduced”. In test [1] (5 mg to 20 mg dosage range), the “AM NOW total symptom score, full 24 hour dosing interval” value is recorded as “Statistically significant (p<0.05) reductions” and the “differences in effectiveness across subgroups defined by gender, age, or race” value is “no significant differences”. Further, the “IgE- and non-IgE-mediated histamine release” value in test [2] is given as “inhibits”. Also, the “effect on expression of the housekeeping gene HPRT” value in the test on IL-4 mRNA is recorded as “no effect; also recorded: unaffected”. Moreover, the “histamine-induced release of IL-6 and IL-8” value in the test with endothelial cells was “reduces”.
Consider `CC(C)(C)c1ccc(C(O)CCCN2CCC(C(O)(c3ccccc3)c3ccccc3)CC2)cc1` (stereo not drawn) [terfenadine], for which the “inhibition of IL-4 and IL-13 secretion” value in the test on basophilic cells was 50%.
